Tests used:
Assay type in all cases: functional
Schistosoma mansoni [1] = assay: Antischistosomal activity against Schistosoma mansoni miracidia assessed as worm death incubated for 1 to 2 hrs by microscopic method relative to control; conditions: time 1-2 hrs
Schistosoma mansoni [2] = assay: Antischistosomal activity against Schistosoma mansoni cercariae assessed as worm death incubated for 2 hrs by microscopic method relative to control
Schistosoma mansoni [3] = assay: Antischistosomal activity against Schistosoma mansoni BH infected in Balb/C mouse assessed as reduction in worm burden at 100 mg/kg, po measured after 2 weeks by Kato-Katz quantitative method; set-up: Activity: scale not given: the % may be the effect or the level left
Schistosoma mansoni [4] = assay: Antischistosomal activity against Schistosoma mansoni BH assessed as worm death at 12.5 to 100 uM measured up to 72 hrs by light microscopic method relative to control; conditions: dose 12.5-100 µM, time hrs <=72
Schistosoma mansoni [5] = assay: Antischistosomal activity against Schistosoma mansoni BH assessed as tegument damage at 12.5 to 100 uM measured up to 72 hrs by confocal laser scanning microscopic method relative to control; conditions: dose 12.5-100 µM, time hrs <=72
Schistosoma mansoni [6] = assay: Antischistosomal activity against Schistosoma mansoni BH assessed as reduction in motor activity at 12.5 to 100 uM measured up to 72 hrs by light microscopic method relative to control; set-up: scale not given: the % may be the effect or the level left; conditions: dose 12.5-100 µM, time hrs <=72
Schistosoma mansoni [7] = assay: Antischistosomal activity against Schistosoma mansoni Egyptian assessed as worm death at 50 to 200 ug/ml incubated upto 72 hrs by stereomicroscopy; conditions: dose 50-200 µg/ml; time hrs <=72; at 50 to 200 µg/mL
Schistosoma mansoni [8] = assay: Antischistosomal activity against Schistosoma mansoni Egyptian assessed as tegument damage at 50 to 200 ug/ml incubated upto 72 hrs by inverted microscopy; conditions: dose 50-200 µg/ml; time hrs <=72; at 50 to 200 µg/mL
Schistosoma mansoni [9] = assay: Antischistosomal activity against Schistosoma mansoni Egyptian assessed as reduction in motor activity at 50 to 200 ug/ml incubated upto 72 hrs by stereomicroscopy; set-up: scale not given: the % may be the effect or the level left; conditions: dose 50-200 µg/ml; time hrs <=72; at 50 to 200 µg/mL
Schistosoma mansoni [10] = assay: Antischistosomal activity against Schistosoma mansoni Egyptian assessed as reduction in egg production at 50 to 200 ug/ml incubated upto 72 hrs by microscopic method relative to control; set-up: scale not given: the % may be the effect or the level left; conditions: dose 50-200 µg/ml; time hrs <=72; at 50 to 200 µg/mL
Schistosoma mansoni [11] = assay: Antischistosomal activity against Schistosoma mansoni infected in MF1 swiss albino mouse assessed as worm burden reduction at 200 mg/kg, po measured after 2 weeks by stereomicroscopy relative to control; set-up: scale not given: the % may be the effect or the level left
Schistosoma mansoni [12] = assay: Antischistosomal activity against juvenile Schistosoma mansoni BH infected in Balb/C mouse assessed as reduction in worm burden at 100 mg/kg, po measured after 2 weeks; set-up: scale not given: the % may be the effect or the level left
Schistosoma mansoni [13] = assay: Antischistosomal activity against adult Schistosoma mansoni BH infected in Balb/C mouse assessed as reduction in worm burden at 100 mg/kg, po measured after 2 weeks; set-up: scale not given: the % may be the effect or the level left
Schistosoma mansoni [14] = assay: Antischistosomal activity against Schistosoma mansoni BH assessed as tegument damage at 3.125 to 25 ug/ml measured up to 120 hrs by inverted microscopic method relative to control; conditions: dose 3.125-25 µg/ml; time hrs <=120; at 3.125 to 25 µg/mL
Schistosoma mansoni [15] = assay: Antischistosomal activity against Schistosoma mansoni BH assessed as changes in motor activity at 3.125 to 25 ug/ml measured up to 120 hrs by inverted microscopic method relative to control; conditions: dose 3.125-25 µg/ml; time hrs <=120; at 3.125 to 25 µg/mL
Schistosoma mansoni [16] = assay: Antischistosomal activity against larva Schistosoma mansoni infected in ICR mouse assessed as reduction in worm burden at 8 mg/kg, ip administered for 5 consecutive days; set-up: scale not given: the % may be the effect or the level left
Schistosoma mansoni [17] = assay: Antischistosomal activity against juvenile Schistosoma mansoni infected in ICR mouse assessed as reduction in worm burden at 8 mg/kg, ip administered for 5 consecutive days; set-up: scale not given: the % may be the effect or the level left
Schistosoma mansoni [18] = assay: Antischistosomal activity against adult Schistosoma mansoni infected in ICR mouse assessed as reduction in worm burden at 8 mg/kg, ip administered for 5 consecutive days; set-up: scale not given: the % may be the effect or the level left
Schistosoma japonicum [19] = assay: Antischistosomal activity against larva Schistosoma japonicum infected in ICR mouse assessed as reduction in worm burden at 8 mg/kg, ip administered for 5 consecutive days; set-up: scale not given: the % may be the effect or the level left
Schistosoma japonicum [20] = assay: Antischistosomal activity against juvenile Schistosoma japonicum infected in ICR mouse assessed as reduction in worm burden at 8 mg/kg, ip administered for 5 consecutive days; set-up: scale not given: the % may be the effect or the level left
Schistosoma japonicum [21] = assay: Antischistosomal activity against adult Schistosoma japonicum infected in ICR mouse assessed as reduction in worm burden at 8 mg/kg, ip administered for 5 consecutive days; set-up: scale not given: the % may be the effect or the level left
Schistosoma mansoni [22] = assay: Antischistosomal activity against Schistosoma mansoni LE schistosomula measured every 24 hrs for 72 hrs by inverted microscopy
Schistosoma mansoni [23] = assay: Antischistosomal activity against adult Schistosoma mansoni LE measured every 24 hrs for 72 hrs by inverted microscopy
Schistosoma mansoni [24] = assay: Antischistosomal activity against juvenile Schistosoma mansoni LE measured every 24 hrs for 72 hrs by inverted microscopy
Schistosoma mansoni [25] = assay: Antischistosomal activity against Schistosoma mansoni LE assessed as reduction in egg population at 100 uM measured after 72 hrs by inverted microscopy relative to control; set-up: scale not given: the % may be the effect or the level left
Schistosoma mansoni [26] = assay: Antischistosomal activity against Schistosoma mansoni LE assessed as reduction in egg development by measuring developed eggs at 100 uM measured after 5 days relative to control; set-up: scale not given: the % may be the effect or the level left; conditions: time 5 day
Schistosoma mansoni [27] = assay: Antischistosomal activity against Schistosoma mansoni LE infected in BALB/c mouse assessed as reduction in worm burden at 10 mg/kg, ip administered for 5 consecutive days starting from day 1 post infection by microscopic method relative to control; set-up: scale not given: the % may be the effect or the level left
Schistosoma mansoni [28] = assay: Antischistosomal activity against Schistosoma mansoni LE infected in BALB/c mouse assessed as reduction in worm burden at 10 mg/kg, ip administered for 5 consecutive days starting from day 23 by microscopic method relative to control; set-up: scale not given: the % may be the effect or the level left
Schistosoma mansoni [29] = assay: Antischistosomal activity against Schistosoma mansoni LE infected in BALB/c mouse assessed as reduction in worm burden at 10 mg/kg, ip administered for 5 consecutive days starting from day 37 by microscopic method relative to control; set-up: scale not given: the % may be the effect or the level left
Schistosoma mansoni [30] = assay: Antischistosomal activity against Schistosoma mansoni LE infected in BALB/c mouse assessed as reduction in worm burden at 50 mg/kg, ip administered for 5 consecutive days starting from day 1 post infection by microscopic method relative to control; set-up: scale not given: the % may be the effect or the level left
Schistosoma mansoni [31] = assay: Antischistosomal activity against Schistosoma mansoni LE infected in BALB/c mouse assessed as reduction in worm burden at 50 mg/kg, ip administered for 5 consecutive days starting from day 23 post infection by microscopic method relative to control; set-up: scale not given: the % may be the effect or the level left
Schistosoma mansoni [32] = assay: Antischistosomal activity against Schistosoma mansoni LE infected in BALB/c mouse assessed as reduction in worm burden at 50 mg/kg, ip administered for 5 consecutive days starting from day 37 post infection by microscopic method relative to control; set-up: scale not given: the % may be the effect or the level left
Schistosoma mansoni [33] = assay: Antischistosomal activity against Schistosoma mansoni LE infected in BALB/c mouse assessed as reduction in worm burden at 100 mg/kg, ip administered for 5 consecutive days starting from day 1 post infection by microscopic method relative to control; set-up: scale not given: the % may be the effect or the level left
Schistosoma mansoni [34] = assay: Antischistosomal activity against Schistosoma mansoni LE infected in BALB/c mouse assessed as reduction in worm burden at 100 mg/kg, ip administered for 5 consecutive days starting from day 23 post infection by microscopic method relative to control; set-up: scale not given: the % may be the effect or the level left
Schistosoma mansoni [35] = assay: Antischistosomal activity against Schistosoma mansoni LE infected in BALB/c mouse assessed as reduction in worm burden at 100 mg/kg, ip administered for 5 consecutive days starting from day 37 post infection by microscopic method relative to control; set-up: scale not given: the % may be the effect or the level left
Schistosoma mansoni [36] = assay: Antischistosomal activity against Schistosoma mansoni LE infected in BALB/c mouse assessed as reduction in egg burden at 10 mg/kg, ip administered for 5 consecutive days starting from day 1 post infection by microscopic method relative to control; set-up: scale not given: the % may be the effect or the level left
Schistosoma mansoni [37] = assay: Antischistosomal activity against Schistosoma mansoni LE infected in BALB/c mouse assessed as reduction in egg burden at 10 mg/kg, ip administered for 5 consecutive days starting from day 23 post infection by microscopic method relative to control; set-up: scale not given: the % may be the effect or the level left
Schistosoma mansoni [38] = assay: Antischistosomal activity against Schistosoma mansoni LE infected in BALB/c mouse assessed as reduction in egg burden at 10 mg/kg, ip administered for 5 consecutive days starting from day 37 post infection by microscopic method relative to control; set-up: scale not given: the % may be the effect or the level left
Schistosoma mansoni [39] = assay: Antischistosomal activity against Schistosoma mansoni LE infected in BALB/c mouse assessed as reduction in egg burden at 50 mg/kg, ip administered for 5 consecutive days starting from day 1 post infection by microscopic method relative to control; set-up: scale not given: the % may be the effect or the level left
Schistosoma mansoni [40] = assay: Antischistosomal activity against Schistosoma mansoni LE infected in BALB/c mouse assessed as reduction in egg burden at 50 mg/kg, ip administered for 5 consecutive days starting from day 23 post infection by microscopic method relative to control; set-up: scale not given: the % may be the effect or the level left
Schistosoma mansoni [41] = assay: Antischistosomal activity against Schistosoma mansoni LE infected in BALB/c mouse assessed as reduction in egg burden at 50 mg/kg, ip administered for 5 consecutive days starting from day 37 post infection by microscopic method relative to control; set-up: scale not given: the % may be the effect or the level left
Schistosoma mansoni [42] = assay: Antischistosomal activity against Schistosoma mansoni LE infected in BALB/c mouse assessed as reduction in egg burden at 100 mg/kg, ip administered for 5 consecutive days starting from day 1 post infection by microscopic method relative to control; set-up: scale not given: the % may be the effect or the level left
Schistosoma mansoni [43] = assay: Antischistosomal activity against Schistosoma mansoni LE infected in BALB/c mouse assessed as reduction in egg burden at 100 mg/kg, ip administered for 5 consecutive days starting from day 23 post infection by microscopic method relative to control; set-up: scale not given: the % may be the effect or the level left
Schistosoma mansoni [44] = assay: Antischistosomal activity against Schistosoma mansoni LE infected in BALB/c mouse assessed as reduction in egg burden at 100 mg/kg, ip administered for 5 consecutive days starting from day 37 post infection by microscopic method relative to control; set-up: scale not given: the % may be the effect or the level left

CC1=CC(=O)CC(C)(C)C1(O)/C=C/C(C)O[C@@H]1O[C@H](COC(=O)c2cc(O)c(O)c(O)c2)[C@@H](O)[C@H](O)[C@H]1O (stereo not given in full)
mortality (Schistosoma mansoni [1]): 99.7% | mortality (Schistosoma mansoni [2]): 41%

C=C1C(=O)O[C@@H]2C3O[C@]3(C)CC/C=C(\C)CC[C@@H]12 (stereo not given in full)
Activity (Schistosoma mansoni [3]): 64.1% | mortality (Schistosoma mansoni [4]): 100% | Activity (Schistosoma mansoni [5]): 100% | Activity (Schistosoma mansoni [6]): 100%

O=S(=O)(c1ccc(O)c2ncccc12)C1C(c2ccccc2)=Nc2ccncc2N=C1c1ccccc1 (stereo not given)
mortality (Schistosoma mansoni [7]): 100% | Activity (Schistosoma mansoni [8]): 20% | Activity (Schistosoma mansoni [9]): 100% | Activity (Schistosoma mansoni [10]): 54% | Activity (Schistosoma mansoni [11]): 81.2%

Cn1cncc1C[C@H]1CCC(=O)[C@H]1C(O)c1ccccc1 (stereo not given in full)
Activity (Schistosoma mansoni [12]): 58% | Activity (Schistosoma mansoni [13]): 60.6% | mortality at 100 mg/kg (Schistosoma mansoni [3]; Schistosoma mansoni, BH, po, 336 h): 64.1% | Activity (Schistosoma mansoni [14]): 100% | Activity (Schistosoma mansoni [15]): 100%

C[C@@H]1O[C@@H](O[C@@H]2C[C@@H](O[C@@H]3O[C@H](CO)[C@@H](O)[C@H](O)[C@H]3O)CO[C@H]2O[C@H]2CC[C@]3(C)[C@H]4CC=C5[C@@H]6CC(C)(C)CC[C@]6(C(=O)O)CC[C@@]5(C)[C@]4(C)CC[C@H]3C2(C)C)[C@H](O)[C@H](O)[C@H]1O
Activity (Schistosoma mansoni [16]): 88.6% | Activity (Schistosoma mansoni [17]): 68.3% | Activity (Schistosoma mansoni [18]): 70.6% | Activity (Schistosoma japonicum [19]): 90% | Activity (Schistosoma japonicum [20]): 59.9% | Activity (Schistosoma japonicum [21]): 53.2%

O=C1OC[C@@H](Cc2cc3c(cc2[N+](=O)[O-])OCO3)[C@@H]1Cc1cc2c(cc1[N+](=O)[O-])OCO2
LC50 (Schistosoma mansoni [22]): 20.4 µM | LC50 (Schistosoma mansoni [23]): 102 µM | LC50 (Schistosoma mansoni [24]): 180 µM | Activity (Schistosoma mansoni [25]): >83% | Activity (Schistosoma mansoni [26]): <10% | Activity (Schistosoma mansoni [27]): 33% | Activity (Schistosoma mansoni [28]): 33% | Activity (Schistosoma mansoni [29]): 33% | Activity (Schistosoma mansoni [30]): 36% | Activity (Schistosoma mansoni [31]): 36% | Activity (Schistosoma mansoni [32]): 36% | Activity (Schistosoma mansoni [33]): 39% | Activity (Schistosoma mansoni [34]): 39% | Activity (Schistosoma mansoni [35]): 39% | Activity (Schistosoma mansoni [36]): 40% | Activity (Schistosoma mansoni [37]): 40% | Activity (Schistosoma mansoni [38]): 40% | Activity (Schistosoma mansoni [39]): 52% | Activity (Schistosoma mansoni [40]): 52% | Activity (Schistosoma mansoni [41]): 52% | Activity (Schistosoma mansoni [42]): 16% | Activity (Schistosoma mansoni [43]): 16% | Activity (Schistosoma mansoni [44]): 16%
